Experimental data from patent US20210078972A1, “QUINOLINE OR QUINAZOLINE COMPOUND AND APPLICATION THEREOF” (HAIHE BIOPHARMA CO., LTD., priority 2018, published 2021).

How the values were obtained:
[1] = test system: Mixed primary macaca fascicularis hepatocytes; assay: Metabolism in monkey hepatocytes, UPLC-UV/Q-TOF MS; assay type: in vitro ADME; conditions: 180 min
Experimental: (§1) In this example, a UPLC-UV/Q-TOF MS method was used to evaluate the differences in the metabolic processes of TL134 in hepatocytes of five species of human, monkey, canine, rat, and mouse.
(§2) The total volume of each incubation sample was 100 μL, the medium was WME medium (pH 7.4), and the incubation sample included hepatocytes with a cell density of 1.0×10^6 cells/mL and TL134 with a final concentration of 3.0 μM; the negative control sample was incubated with thermal-inactivated mixed hepatocytes (without cell counting) of five species of animals and TL134, and the buffer control sample was incubated with WME medium and TL134. All samples were incubated at 37° C. for 180 min, and then 100 μL of ice-cold acetonitrile was added to stop the reaction. The samples were stored at −70° C. for ready to be tested, and all incubation samples were double samples.
(§3) Triple TOF 5600′ quadrupole-time-of-flight tandem mass spectrometer (Q-TOF MS), equipped with electrospray ionization source (ESI source) and CDS automatic calibration system, AB SCIEX Company, USA; Acquity UPLC liquid chromatography system, including binary infusion pump, autosampler, column oven, degasser and TUV ultraviolet detector, Waters Company, USA. […]

[2] = test system: Mixed primary male beagle canine hepatocytes; assay: Metabolism in canine hepatocytes, UPLC-UV/Q-TOF MS; assay type: in vitro ADME; conditions: 180 min
Experimental: as §1, §2, §3

[3] = test system: MV4-11 cells; assay: MV4-11 cell proliferation, CCK-8; assay type: cell-based; conditions: Homo sapiens, 72 h, read-out: IC50 of inhibition of proliferation of MV4-11 cells
Experimental: The inhibitory effects of the compounds on the proliferation of MV4-11 cells were detected by a CCK-8 cell counting kit (Dojindo). The specific steps are as follows: MV4-11 cells in the logarithmic phase were seeded into a 96-well culture plate at a suitable density for 90 μL per well. After overnight cultivation, the compounds at different concentrations were added to act for 72 hr, and a solvent control group was set (negative control). After 72 h of the compounds acting on the cells, the effects of the compounds on cell proliferation were detected using the CCK-8 cell counting kit (Dojindo). 10 μL of CCK-8 reagent was added to each well and the plate was placed in an incubator at 37° C. for 2-4 hours. After that, a full-wavelength microplate enzyme-labeling instrument SpectraMax 190 was used to read with a measurement wavelength of 450 nm.
The inhibition rate (%) of the compound on tumor cell growth was calculated by the following formula:
Inhibition rate (%)=(OD control well−OD administration well)/OD control well×100%
The IC50 values were obtained by regression with the four-parameter method using the software attached to the enzyme-labeling instrument.

[4] = test system: Mixed primary human hepatocytes; assay: Metabolism in human hepatocytes, UPLC-UV/Q-TOF MS; assay type: in vitro ADME; conditions: 180 min
Experimental: as §1, with “mouse. It provides a reference for the selection of preclinical pharmacokinetics and studies on animal species safety evaluation.” for “mouse.”
as §2, §3

[5] = test system: Mixed primary male SD rat hepatocytes; assay: Metabolism in rat hepatocytes, UPLC-UV/Q-TOF MS; assay type: in vitro ADME; conditions: 180 min
Experimental: as §1, with “mouse. It provides a reference for the selection of preclinical pharmacokinetics and studies on animal species safety evaluation.” for “mouse.”
as §2, §3

[6] = test system: Mixed primary male CD-1 mouse hepatocytes; assay: Metabolism in mouse hepatocytes, UPLC-UV/Q-TOF MS; assay type: in vitro ADME; conditions: 180 min
Experimental: as §1, with “mouse. It provides a reference for the selection of preclinical pharmacokinetics and studies on animal species safety evaluation.” for “mouse.”
as §2, §3

prototype drug metabolized, judging from the UV chromatographic peak areas [1] | prototype drug metabolized, judging from the UV chromatographic peak areas [2] | IC50 [3] | prototype drug metabolized, judging from the UV chromatographic peak areas [4] | prototype drug metabolized, judging from the UV chromatographic peak areas [5] | prototype drug metabolized, judging from the UV chromatographic peak areas [6] | SMILES
approximately 41.3% | ~27.2% |  |  |  |  | CCc1ccc2c(c1)c(=O)c(C(=O)Nc1ccc(Oc3ncnc4cc(OCCCN5CCOCC5)c(OC)cc34)c(F)c1)c(C)n2C [GDL5000123, 6-ethyl-N-(3-fluoro-4-((6-methoxy-7-(3-morpholinopropoxy)quinazolin-4-yl)oxy)phenyl)-1,2-dime thyl-4-oxo-1,4-dihydroquinoline-3-carboxamide, reference compound]
~4.6% | ~15.4% | < 0.4 nM | approximately 17.8% | ~19.8% | ~3.0% | COc1cc2c(Oc3ccc(NC(=O)c4c(C)n(C)c5ccc(OC(F)(F)F)cc5c4=O)cc3F)ncnc2cc1OCCCN1CCOCC1 [TL-134, N-(3-fluoro-4-((6-methoxy-7-(3-morpholinopropoxy)quinazolin-4-yl)oxy)phenyl)-1,2-dim ethyl-4-oxo-6-(trifluoromethoxy)-1,4-dihydroquinoline-3-carboxamide]
